The record followed here is ChEMBL document CHEMBL1126427, “Synthesis of a potent, reversible inhibitor of interleukin-1 converting enzyme” (Bioorg Med Chem Lett, 1992).

One may read the Ki as the dissociation constant of the complex between target and ligand, obtained from inhibition or displacement. Higher therefore signals weaker binding.

SMILES strings stand for the structures.

The test deals with T1, Caspase-1 (Homo sapiens, UniProt P29466).
T1 sequence (P29466 whole entry): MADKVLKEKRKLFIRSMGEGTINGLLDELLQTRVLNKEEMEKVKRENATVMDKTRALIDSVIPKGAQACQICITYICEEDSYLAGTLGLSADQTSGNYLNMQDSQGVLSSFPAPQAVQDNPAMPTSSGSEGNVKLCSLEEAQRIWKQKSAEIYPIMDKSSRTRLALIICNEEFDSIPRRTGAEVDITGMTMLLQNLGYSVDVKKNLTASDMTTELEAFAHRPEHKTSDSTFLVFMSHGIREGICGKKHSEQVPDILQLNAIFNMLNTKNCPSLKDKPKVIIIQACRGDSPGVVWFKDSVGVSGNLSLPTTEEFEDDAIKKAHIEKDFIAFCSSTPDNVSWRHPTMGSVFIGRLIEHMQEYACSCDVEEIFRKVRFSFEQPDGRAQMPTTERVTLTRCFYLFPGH
The experiment in a line: The compound was tested for inhibition of IL-1 beta converting enzyme in whole human blood.

Take `CC(=O)N[C@@H](Cc1ccc(O)cc1)C(=O)N[C@H](C(=O)N[C@@H](C)C(=O)N[C@H](C=O)CC(=O)O)C(C)C`: affinity was put at a Ki of 0.76 nM.
